Test results taken from the METLIN SMRT retention time set (Domingo-Almenara et al. 2019).

Test: gradient 5% acetonitrile 3 min, to 50% in 2 min, to 85% in 15 min, held 3 min, 100 µL/min
Conditions: column: Zorbax Extend-C18 2.1 x 50 mm; eluents: water / acetonitrile, 0.1% formic acid
Summary of the method: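 Retention times of pure standards were taken from adduct peaks that were selected by computer and manually inspected. Over 3 months, mixtures of ~100 molecules were run by HPLC–quadrupole time-of-flight mass spectrometry in positive and negative ionization mode. The Zorbax Extend-C18 column (2.1 × 50 mm, 1.8 μm) ran at 100 μL/min in water and acetonitrile, each containing 0.1% formic acid, with 40 μL dead volume and 900 μL dwell volume.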

Row | SMILES | RP-LC retention time
1 | O=C(Cc1ccccc1Br)N1CCN(c2cc(-c3ccc(F)cc3)[nH]n2)CC1 | 867 s
2 | CCc1nnc(-c2ccc3ccn(CC(=O)Nc4ccc5c(c4)OCO5)c3c2)o1 | 794 s
3 | CCc1nnc2cc(N3CCN(C(=O)c4ccc(OC)cc4)CC3)cnn12 | 615 s
4 | CCCCS(=O)(=O)c1cc2c(cc1NC(=O)c1cccc(C)c1)n(C)c(=O)n2C | 981 s
5 | CC(C)(C)NC(=O)Cn1ccn2nc(-c3ccccc3)c(CO)c2c1=O | 721 s
6 | CCNc1nc(NC(C)C)nc(-n2cnc(SC)n2)n1 | 897 s
7 | COC(=O)c1cc(S(=O)(=O)N2CCCC2C(=O)Nc2ccc(Cl)cc2C)cn1C (stereo not given) | 958 s
8 | O=C(NCCN1CCCC1)c1nnc(-c2ccc(S(=O)(=O)N3CCCC3)cc2)o1 | 602 s
9 | Cc1ccc(C)c(NC(=O)N2CCCC(C)(C(=O)NCc3ccccc3)C2)c1 (stereo not given) | 967 s
10 | O=C1CCCc2cc(S(=O)(=O)N3CCC(C(=O)NCc4ccccc4Cl)CC3)ccc2N1 | 760 s
11 | CN(C)C1(CC2CC2)CCN(C(=O)C2CCCC2)CC1 | 604 s
12 | CCc1nc(-c2ccc3c(c2)CCN3C(=O)Cc2ccc(F)cc2)no1 | 1030 s
13 | Cc1cc(C)n(CC(=O)N2CCCCC2c2nc(C3CC3)no2)n1 (stereo not given) | 741 s
14 | O=C(NCc1cccc(C(F)(F)F)c1)C1(CCO)CCN(Cc2ccccc2)C1 (stereo not given) | 680 s
15 | CN1C[C@@H]2c3ccccc3Oc3ccc(Cl)cc3[C@H]2C1 | 758 s
16 | Cc1ccc(NC(=O)Cn2c(C)nc3c(sc4nc(-c5ccccc5)ccc43)c2=O)cc1C | 1120 s
17 | O=C(NC1CC1)C1CCN(S(=O)(=O)c2cc(C(=O)N3CCCCCC3)cs2)CC1 | 713 s
18 | COC(=O)c1cc(S(=O)(=O)N2CCCC2C(=O)Nc2ccc3c(c2)OCCO3)cn1C (stereo not given) | 794 s
19 | COc1ccccc1OCCNC(=O)c1ccc2c(=O)n(-c3ccccc3)c(N3CCCC3)nc2c1 | 834 s
20 | COc1ccc2nc(NC3=NCN(CCc4ccc(OC)c(OC)c4)CN3)nc(C)c2c1 | 709 s
21 | CCOc1cccc2sc(N(Cc3ccccn3)C(=O)c3nn(C)cc3C)nc12 | 763 s
22 | CCN(Cc1ccccc1)C(=O)Cn1c(N2CCOCC2)nc(C)cc1=O | 673 s
23 | CCCSc1nnc(NC(=O)c2c(-c3ccccc3Cl)noc2C)s1 | 956 s

Row | SMILES | RP-LC retention time
24 | Cn1c(C(=O)c2ccncc2)cc2ccccc21 | 881 s
25 | CN(C)C(=O)c1ccc2c(c1)nnn2CCNC(=O)Nc1cccc(Cl)c1 | 684 s
26 | Cc1ccc(-c2csc(NC(=O)c3ccc(C)c(C)c3)n2)cc1 | 1240 s
27 | O=C(Cn1cnc2c(-c3ccc(F)cc3)csc2c1=O)NC1CCCC1 | 854 s
28 | Cc1ccc(-c2nnc(SCC(=O)Nc3ccc(C)cc3Br)o2)cc1 | 830 s
29 | COc1cc([C@H]2c3cc4c(cc3[C@@H](O)[C@H](CO)[C@H]2C(=O)N2CCCc3ccccc32)OCO4)cc(OC)c1OC | 734 s
30 | CCOc1ccc(Cc2nc(-c3ccc4c(c3)oc(=O)n4C)no2)cc1OCC | 976 s
31 | COc1ccc(CCC(=O)NC2CCN(c3nnc4ccc(C(F)(F)F)cn34)CC2)cc1 | 767 s
32 | Cc1nc(-c2noc(-c3cccnc3)n2)cn1CC(=O)NC1CCCCC1 | 668 s
33 | Cc1cc2c(cc1S(=O)(=O)N1CCCC1C(=O)Nc1cccc(Cl)c1)OCC(=O)N2 (stereo not given) | 817 s
34 | Cc1ccc2[nH]c(C(=O)NC3CC3)c(N3CCCC3=O)c2c1 | 707 s
35 | O=C(Nc1ccccc1)N1CCCC1c1nc(-c2cccc(Cl)c2)no1 (stereo not given) | 1030 s
36 | Cc1noc(CC2CCOC3(CCN(C(=O)C4(c5ccccc5)CC4)CC3)C2)n1 (stereo not given) | 820 s
37 | CN(C)C(=O)N1CCC(c2nc(CCOc3ccc(F)cc3)no2)C1 (stereo not given) | 767 s
38 | COC(=O)C[C@](O)(CCCC(C)(C)O)C(=O)O[C@@H]1C(OC)=C[C@]23CCCN2CCc2cc4c(cc2[C@H]13)OCO4 | 662 s
39 | NCCSSCc1ccccc1CSSCCN | 567 s
40 | Cc1nn(C2CCS(=O)(=O)C2)c(C)c1N1CCN(C(=O)c2cc3ccccc3[nH]2)CC1 (stereo not given) | 747 s
41 | O=C([C@@H]1C[C@H](F)CN1C(=O)c1cccc(Br)c1)N1CCCCC1 | 742 s
42 | COc1cc(OC)c(NC(=O)Cn2nc3c(cc2=O)CCCC3)cc1Cl | 719 s
43 | O=C(CCSc1ccccc1)N1CCN(CC(F)(F)F)CC1 | 870 s
44 | Cc1ccc(NC(=O)N(C)CCc2noc(COc3ccccc3)n2)c(C)c1 | 934 s
45 | Cc1ccc(NC(=O)N2CCC(N3CCN(Cc4ccccc4)C(=O)C3=O)CC2)cc1C | 780 s
46 | CCCn1cc(S(=O)(=O)NCc2ccccc2)c2cccnc21 | 863 s

Row | SMILES | RP-LC retention time
47 | CCOC(=O)N1CCN(Cc2nc(-c3ccc(N4CCCCC4)nc3)no2)CC1 | 757 s
48 | Cc1ccc(NC(=O)N2CCc3c(c(-c4nnc(-c5ccc(F)cc5)o4)nn3C)C2)c(Cl)c1 | 944 s
49 | CCOc1ccc(Cl)cc1S(=O)(=O)N1CCC(C(=O)NCCO)CC1 | 692 s
50 | COc1cc(OC)cc(C(=O)Nc2ccc3sccc3c2)c1 | 882 s
51 | O=C(Nc1ccccc1NC(=O)C1CC(=O)N(c2ccc(F)cc2)C1)c1ccsc1 (stereo not given) | 739 s
52 | C[C@H]1CN(C(=O)C2CCCC2)C[C@@H]1c1nc(-c2ccccc2)no1 | 1060 s
53 | CCOc1cccc(CN2CC[C@@](C)(O)[C@H](N3CCCC3)C2)c1 | 562 s
54 | C=CCn1c(=O)c2sc(N(CC)CC)nc2n(CC(=O)Nc2c(C)cccc2C)c1=O | 830 s
55 | CCNC(=O)C1CCCN(c2nc3ncn(CC(=O)NC4CCCCC4)c(=O)c3s2)C1 (stereo not given) | 658 s
56 | Cc1cc(CNC(=O)c2cnccn2)no1 | 577 s
57 | CC(C)OCCCNC(=O)c1nnc(-c2ccc(S(=O)(=O)N3CCOCC3)cc2)o1 | 784 s
58 | CCCN(C(=O)CC(=O)OC)c1nc(-c2ccc(Br)cc2)cs1 | 1240 s
59 | O=C(NCc1ccccc1F)c1ccc2c(c1)CN(C1CCSCC1)CCO2 | 584 s
60 | COc1cccc(CNC(=O)Cn2c(=O)cc(-c3nc(C(C)C)no3)c3ccccc32)c1 | 944 s
61 | COc1ccccc1Nc1c(-c2ccc(Br)cc2)nc2cnccn12 | 1080 s
62 | CC(C)NC(=O)c1ccccc1OCC1CCN(C(=O)c2cc(F)cc(F)c2)CC1 | 927 s
63 | CCCS(=O)(=O)N1CCC(c2noc(-c3ccccc3)n2)C1 (stereo not given) | 933 s
64 | CCc1cc(C(=O)NCC2CCCO2)nc2cc(-c3ccccn3)nn12 (stereo not given) | 739 s
65 | COc1cccc(NS(=O)(=O)c2cccc(-c3nc(-c4ccccc4)no3)c2)c1 | 1140 s
66 | Cc1nc(-c2ccccc2)cc2nn(CC(=O)NCc3ccc(F)cc3F)c(=O)n12 | 902 s
67 | CCS(=O)(=O)Nc1ccc(C2(C(=O)NCc3cccc(C)c3)CCC2)cc1 | 869 s
68 | O=C(Cc1ccccc1F)Nc1cnc(-c2cccnc2)nc1 | 652 s
69 | CCOC(=O)C(=CNc1ccccc1Cl)C(=O)OCC | 1130 s

Row | SMILES | RP-LC retention time
70 | COc1cccc(OC)c1CN1CCC2(CC1)CC(O)CCO2 (stereo not given) | 597 s
71 | Cc1nc(-c2cc(S(=O)(=O)N3CCC(C(=O)NCc4cccs4)CC3)c(C)s2)no1 | 882 s
72 | O=C1c2ccccc2C(=O)c2c(NCCc3ccc(O)cc3)ccc(NCCc3ccc(O)cc3)c21 | 1180 s
73 | O=C(CCc1ccccc1)Nc1nnc(C2CC(=O)N(c3ccc(Cl)cc3)C2)o1 (stereo not given) | 805 s
74 | Cc1cccc(CNC(=O)C2CCN(S(=O)(=O)c3cc(C(=O)N4CCOCC4)cs3)CC2)c1 | 763 s
75 | COc1ccc(Cl)cc1NC(=O)C1Oc2ccccc2NC1=O (stereo not given) | 873 s
76 | CCN(CC)S(=O)(=O)c1ccc2c(c1)cc(C(=O)NCCc1c[nH]c3ccc(OC)cc13)n2C | 964 s
77 | CCOC(=O)c1[nH]c(C)c(CCC(=O)NCCN2CCCCCC2)c1C | 616 s
78 | CCOc1ccc(CN2CCC3(CC2)CC(O)CCO3)cc1OC (stereo not given) | 583 s
79 | CC(C)NC(=O)C1CN(S(=O)(=O)c2ccccc2)c2cc(C(C)(C)C)ccc2O1 (stereo not given) | 780 s
80 | Cc1cc(C)n(-c2ccnc(N3CCC(C(=O)NCc4cccnc4)CC3)n2)n1 | 612 s
81 | CC(C)NC[C@H](O)COc1cccc2[nH]ccc12 | 603 s
82 | COCC1CN(C(=O)c2ccoc2C)CCC1(F)F (stereo not given) | 729 s
83 | Nc1cc(C2CCN(S(=O)(=O)Cc3ccccc3)CC2)no1 | 732 s
84 | Cc1cc(Cl)ccc1NS(=O)(=O)c1ccc(-c2c(C)noc2C)cc1 | 1030 s
85 | COc1ccc(N2C=C(C#N)S(=O)(=O)c3cc(F)ccc32)c(OC)c1 | 893 s
86 | CCn1cc(S(=O)(=O)Nc2ccccc2F)c2cccnc21 | 790 s
87 | CCc1nc2c(NC(=O)NCc3ccc(F)cc3)cccn2n1 | 788 s
88 | CCOC(=O)c1ccc(NC(=O)NCc2ccccc2)cc1 | 817 s
89 | COc1cccc(NC(=O)NCC(c2cccnc2)c2cn(C)c3ccccc23)c1 (stereo not given) | 684 s
90 | O=S(=O)(c1cc(-c2cc(C(F)(F)F)on2)cs1)N1CCN(c2cccc(Cl)c2)CC1 | 1300 s
